Laboratory results: patent US7794994B2 (Kemeta, LLC, priority 2001, dated 2010)
“And” between values parts separate entries of the source, which are not always exact repeats. Equal entries are not always repeated.

How the values were obtained:
S-ADH from C. boidinii = experiment: S-ADH spectrophotometric assay, C. boidinii S-ADH; assay type: biochemical, Candida boidinii; conditions: pH 7.6, 5 mM substrate; for Relative S-ADH Activity (%) C. boidinii, alcohol oxidation: alcohol oxidation rates, 0.2 mM NAD+, 2-propanol = 100; for Relative S-ADH Activity (%) C. boidinii, ketone reduction: ketone reduction rates, 0.2 mM NADH, acetone = 100
Method: Assays were performed in 2 mL quartz cuvettes and contained NAD(H) (0.2 mM), potassium phosphate buffer (25 mM), and a source of enzyme (cell-free extracts, column fractions, or purified enzyme) in a total reaction volume of 1 mL at pH 6.2 ([…]) at 30° C. Assays were pre-incubated for 1.5 min. at 30° C. with all assay components except substrate. […]

[1] = test system: S-ADH from X. autotrophicus strain Py2; experiment: Secondary alcohol dehydrogenase NADH oxidation spectrophotometric assay; assay type: biochemical, Xanthobacter autotrophicus strain Py2; conditions: for specific activity, alcohol oxidation: at pH 7.8; for inhibition of S-ADH activity: saturating acetone, alcohol at about 13-fold over the Km value for acetone, data not shown; for Relative S-ADH Activity (%) X. Py2, ketone reduction: ketone reduction rates, pH 6.2, 2.5 mM substrate, 0.2 mM NADH, acetone = 100; for Relative S-ADH Activity (%) X. Py2, alcohol oxidation: alcohol oxidation rates, pH 7.6, 2.5 mM substrate, 0.2 mM NAD+, 2-propanol = 100, NA = no activity detected
Method: (§1) Assays were performed in 2 mL quartz cuvettes and contained NAD(H) (0.2 mM), potassium phosphate buffer (25 mM), and a source of enzyme (cell-free extracts, column fractions, or purified enzyme) in a total reaction volume of 1 mL at pH 6.2 ([…]) at 30° C. Assays were pre-incubated for 1.5 min. at 30° C. with all assay components except substrate. Assays were initiated by addition of substrate (2.5 mM) and monitored over time by measuring the change in absorbance at 340 nm (∈340 of 6.22 mM^−1·cm^−1 for NADH).
Data analysis. Kinetic constants (Km and Vmax) were calculated by fitting initial rate data to the Michaelis-Menten equation and using the software KaleidaGraph Fourth Edition, (Synergy Software, Reading, Pa.).

[2] = test system: S-ADH purified from M vaccae strain JOB-5; conditions: M vaccae enzyme; alcohols oxidized, acetone reduced; cited from earlier work
S-ADH from strain IP-1 = experiment: S-ADH spectrophotometric assay, partially purified S-ADH of isolate IP-1; assay type: biochemical, isopropanol-grown bacterial strain TDCC IP-1; conditions: for Relative S-ADH Activity (%) IP-1, alcohol oxidation: alcohol oxidation rates, pH 7.6, 2.5 mM substrate, 0.2 mM NAD+, 2-propanol = 100, NA = no activity detected; for Relative S-ADH Activity (%) IP-1, ketone reduction: ketone reduction rates, pH 6.2, 2.5 mM substrate, 0.2 mM NADH, acetone = 100
Method: Protein purifications. […] Secondary alcohol dehydrogenase (S-ADH) from X. autotrophicus Py2 was purified via the following protocol. Cell-free extracts (380 mL) of isopropanol-grown X. autotrophicus Py2 (150 g) were prepared as described above, and applied to a 5×15 cm column of DEAE-Sepharose FAST FLOW (Diethylaminoethyl cross-linked agarose bead material; Catalog number 17-0709-10, Amersham Pharmacia Biotech, Piscataway, N.J.)) equilibrated in buffer A (25 mM MOPS (3-(N-morpholino)propanesulfonic acid), pH 7.6, 5% glycerol, 1 mM dithiothreitol) at a flow rate of 10 mL/min. After loading, the column was washed with […] buffer A and developed with a 2400 mL linear gradient of 90-290 mM KCl in buffer A. Fractions containing S-ADH activity were pooled and dialyzed against 2 L of 25 mM potassium phosphate (pH 6.2) containing 5% glycerol (buffer B) for 16 h at 4° C. […] After washing the column with 30 mL of buffer B, S-ADH was eluted with 20 mL of buffer A containing 10 mM NAD^+. Fractions containing S-ADH were then dialyzed against 2 L of buffer A for 16 h at 4° C., concentrated by ultrafiltration (using a YM30 ultrafiltration membrane; catalog no. 13722, from Millipore, Bedford, Mass.), and frozen in liquid nitrogen. Partially purified S-ADH from bacterial screen cultures was prepared as follows: cell-free extracts from 1 to 5 g of cell paste were prepared as described above and applied to a 5 mL HI TRAP Q column (quaternary, tetraethylammonium, cross-linked agarose bead material for use as an anion exchange matrix; catalog number 17-1153-01, Amersham Pharmacia Biotech) equilibrated in 100 mM MOPS, pH 7.6, containing 5% (v/v) glycerol (buffer C). The column was washed with 10 mL buffer C and developed with a 100 mL linear gradient of 0 to 100 mM NaCl in buffer C. Fractions containing S-ADH activity were pooled, concentrated to 0.5 mL using a 30 kDa MWCO (“molecular weight cut-off”) centrifugal membrane (catalog number UFV4BTK25, Millipore), and stored at −80° C.
as §1

CCCO [1-Propanol]
Relative S-ADH Activity (%) C. boidinii, alcohol oxidation (S-ADH from C. boidinii): 9%
specific activity, alcohol oxidation [1]: No activity
inhibition of S-ADH activity [1]: no inhibition was observed
Km [2]: 8100 µM
Relative S-ADH Activity (%) IP-1, alcohol oxidation (S-ADH from strain IP-1): 2%

CC(C)=O [Acetone, acetone]
Relative S-ADH Activity (%) C. boidinii, ketone reduction (S-ADH from C. boidinii): 100%
Relative S-ADH Activity (%) X. Py2, ketone reduction [1]: 100%
Km ([1]; reduction of acetone to isopropanol, NADH at fixed saturating concentration, read-out: apparent Km): ~144 µM and 144 µM
Km [2]: 300 µM
Relative S-ADH Activity (%) IP-1, ketone reduction (S-ADH from strain IP-1): 100%

CCC(C)=O [2-Butanone]
Relative S-ADH Activity (%) C. boidinii, ketone reduction (S-ADH from C. boidinii): 175%
Relative S-ADH Activity (%) X. Py2, ketone reduction [1]: 170%
Relative S-ADH Activity (%) IP-1, ketone reduction (S-ADH from strain IP-1): 192%

CC(C)O [2-Propanol]
Relative S-ADH Activity (%) C. boidinii, alcohol oxidation (S-ADH from C. boidinii): 100%
Relative S-ADH Activity (%) X. Py2, alcohol oxidation [1]: 100%
specific activity, alcohol oxidation [1]: 24±1.8 μmol alcohol oxidized min^−1mg^−1 protein
Km [2]: 50 µM
Relative S-ADH Activity (%) IP-1, alcohol oxidation (S-ADH from strain IP-1): 100%

CCC(C)O (stereo not drawn) [2-Butanol]
Relative S-ADH Activity (%) C. boidinii, alcohol oxidation (S-ADH from C. boidinii): 100%
Relative S-ADH Activity (%) X. Py2, alcohol oxidation [1]: 88%
specific activity, alcohol oxidation [1]: 21±3.6 μmol alcohol oxidized min^−1mg^−1 protein and 37±1.1 μmol alcohol oxidized min^−1mg^−1 protein
Relative S-ADH Activity (%) IP-1, alcohol oxidation (S-ADH from strain IP-1): 147%

CCO [Ethanol]
Relative S-ADH Activity (%) C. boidinii, alcohol oxidation (S-ADH from C. boidinii): 9%
S-ADH activity in the presence of ethanol ([1]; 41 mM ethanol, equivalent to 500 ppm (v/v) gas phase ethanol): 82-85%
specific activity, alcohol oxidation [1]: No activity
inhibition of S-ADH activity [1]: no inhibition was observed
Relative S-ADH Activity (%) IP-1, alcohol oxidation (S-ADH from strain IP-1): 9%
